ChEMBL document CHEMBL1150975, “Biochemical and three-dimensional-structural study of the specific inhibition of protein kinase CK2 by [5-oxo-5,6-dihydroindolo-(1,2-a)quinazolin-7-yl]acetic acid (IQA)” (Biochem J, 2003)

Experiments:
[1] = biological target: T1, MAP kinase-activated protein kinase 5 (Homo sapiens) (UniProt Q8IW41); experiment: Percent residual PRAK activity in the presence of 10uM inhibitor
T1 sequence (whole entry): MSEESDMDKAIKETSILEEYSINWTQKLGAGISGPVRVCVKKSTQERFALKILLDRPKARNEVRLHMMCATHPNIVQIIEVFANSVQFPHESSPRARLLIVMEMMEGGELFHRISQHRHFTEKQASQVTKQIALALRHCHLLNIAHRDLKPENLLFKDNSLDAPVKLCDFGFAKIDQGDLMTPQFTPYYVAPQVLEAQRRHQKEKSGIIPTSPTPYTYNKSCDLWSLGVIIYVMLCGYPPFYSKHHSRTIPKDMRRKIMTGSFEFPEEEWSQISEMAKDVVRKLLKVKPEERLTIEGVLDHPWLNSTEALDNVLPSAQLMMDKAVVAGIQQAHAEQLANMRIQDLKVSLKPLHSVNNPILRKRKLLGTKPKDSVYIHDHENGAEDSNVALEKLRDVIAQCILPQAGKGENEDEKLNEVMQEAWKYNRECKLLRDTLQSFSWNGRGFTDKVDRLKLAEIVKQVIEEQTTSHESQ

[2] = biological target: Ribosomal protein S6 kinase beta-1 (Homo sapiens) (UniProt P23443); experiment: Percent residual S6K1 activity in the presence of 10uM inhibitor
[3] = biological target: Dual specificity mitogen-activated protein kinase kinase 1 (Homo sapiens) (UniProt Q02750); experiment: Percent residual MKK1 activity in presence of 10uM inhibitor
[4] = biological target: Cyclin-dependent kinase 2 (Homo sapiens) (UniProt P24941); experiment: Percent residual CDK2-cyclinA activity in the presence of 10uM inhibitor
[5] = Percent residual Phosphorylase kinase activity in the presence of 10uM inhibitor
[6] = biological target: T2, 3-phosphoinositide-dependent protein kinase 1 (Homo sapiens) (UniProt O15530); experiment: Percent residual PDK1 activity in the presence of 10uM inhibitor
T2 sequence (whole entry): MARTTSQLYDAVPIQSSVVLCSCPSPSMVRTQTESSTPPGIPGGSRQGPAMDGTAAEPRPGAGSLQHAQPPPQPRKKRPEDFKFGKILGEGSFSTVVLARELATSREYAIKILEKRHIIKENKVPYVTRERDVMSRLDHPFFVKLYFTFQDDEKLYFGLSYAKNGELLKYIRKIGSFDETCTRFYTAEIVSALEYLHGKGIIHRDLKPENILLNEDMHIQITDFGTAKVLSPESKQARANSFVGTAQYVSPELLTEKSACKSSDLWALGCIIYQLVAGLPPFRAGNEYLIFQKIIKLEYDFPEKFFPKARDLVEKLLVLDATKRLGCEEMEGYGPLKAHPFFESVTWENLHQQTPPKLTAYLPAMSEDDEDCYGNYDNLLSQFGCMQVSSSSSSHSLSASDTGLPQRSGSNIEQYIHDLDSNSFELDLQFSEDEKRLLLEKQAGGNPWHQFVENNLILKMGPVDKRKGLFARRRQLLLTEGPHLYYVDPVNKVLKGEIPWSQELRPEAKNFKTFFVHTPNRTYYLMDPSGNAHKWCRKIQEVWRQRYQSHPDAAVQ

[7] = biological target: EKC/KEOPS complex subunit BUD32 (Saccharomyces cerevisiae S288c) (UniProt P53323); experiment: Percent residual PiD261 activity in the presence of 10uM inhibitor
[8] = biological target: Tyrosine-protein kinase Lck (Homo sapiens, UniProt P06239); experiment: Percent residual Lck activity in the presence of 10uM inhibitor
[9] = biological target: RAC-alpha serine/threonine-protein kinase (Homo sapiens) (UniProt P31749); experiment: Percent residual PKBalpha activity in the presence of 10uM inhibitor
[10] = biological target: Glycogen synthase kinase-3 beta (Homo sapiens, UniProt P49841); experiment: Percent residual GSK3-beta activity in the presence of 10uM inhibitor
[11] = biological target: 5'-AMP-activated protein kinase catalytic subunit alpha-2 (Homo sapiens) (UniProt P54646); experiment: Percent residual AMPK activity in the presence of 10uM inhibitor
[12] = Inhibition of V66A-mutated CK2 holoenzyme; parameters: species or system Zea mays
[13] = biological target: T3, Mitogen-activated protein kinase 13 (Homo sapiens) (UniProt O15264); experiment: Percent residual p38delta activity in the presence of 10uM inhibitor
T3 sequence (whole entry): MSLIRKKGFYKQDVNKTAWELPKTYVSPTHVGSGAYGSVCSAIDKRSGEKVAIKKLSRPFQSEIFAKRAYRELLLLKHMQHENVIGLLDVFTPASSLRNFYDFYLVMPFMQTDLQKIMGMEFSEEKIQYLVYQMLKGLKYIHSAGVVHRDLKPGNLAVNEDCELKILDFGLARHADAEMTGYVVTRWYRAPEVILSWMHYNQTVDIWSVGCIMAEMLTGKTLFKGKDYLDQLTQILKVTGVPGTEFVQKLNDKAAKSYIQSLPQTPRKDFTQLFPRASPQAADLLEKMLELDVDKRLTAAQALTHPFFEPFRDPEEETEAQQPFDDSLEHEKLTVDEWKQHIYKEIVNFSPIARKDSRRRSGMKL

[14] = biological target: Mitogen-activated protein kinase 1 (Homo sapiens) (UniProt P28482); experiment: Percent residual ERK2 activity in the presence of 10uM inhibitor
[15] = biological target: MAP kinase-activated protein kinase 2 (Homo sapiens) (UniProt P49137); experiment: Percent residual MAPKAPK2 activity in the presence of 10uM inhibitor
[16] = biological target: Mitogen-activated protein kinase kinase kinase kinase 5 (Homo sapiens) (UniProt Q9Y4K4); experiment: Percent residual G-CK activity in the presence of 10uM inhibitor
[17] = biological target: Tyrosine-protein kinase Fgr (Homo sapiens) (UniProt P09769); experiment: Percent residual c-Fgr activity in the presence of 10uM inhibitor
[18] = biological target: Dual specificity tyrosine-phosphorylation-regulated kinase 1A (Homo sapiens, UniProt Q13627); experiment: Percent residual DYRK1a activity in the presence of 10uM inhibitor
[19] = biological target: Tyrosine-protein kinase SYK (Homo sapiens) (UniProt P43405); experiment: Percent residual Syk activity in the presence of 10uM inhibitor
[20] = biological target: cAMP-dependent protein kinase (PKA) (Homo sapiens, UniProt P22694+P17612+P22612); experiment: Percent residual PKA activity in the presence of 10uM inhibitor; format: protein assay
[21] = biological target: Ribosomal protein S6 kinase alpha-5 (Homo sapiens) (UniProt O75582); experiment: Percent residual MSK1 activity in the presence of 10uM inhibitor
[22] = biological target: Tyrosine-protein kinase Lyn (Homo sapiens) (UniProt P07948); experiment: Percent residual Lyn activity in the presence of 10uM inhibitor
[23] = biological target: Protein kinase C alpha type (Homo sapiens) (UniProt P17252); experiment: Percent residual PKCalpha activity in the presence of 10uM inhibitor

Chain of Ribosomal protein S6 kinase beta-1 (Homo sapiens) (P23443 whole entry, looked up): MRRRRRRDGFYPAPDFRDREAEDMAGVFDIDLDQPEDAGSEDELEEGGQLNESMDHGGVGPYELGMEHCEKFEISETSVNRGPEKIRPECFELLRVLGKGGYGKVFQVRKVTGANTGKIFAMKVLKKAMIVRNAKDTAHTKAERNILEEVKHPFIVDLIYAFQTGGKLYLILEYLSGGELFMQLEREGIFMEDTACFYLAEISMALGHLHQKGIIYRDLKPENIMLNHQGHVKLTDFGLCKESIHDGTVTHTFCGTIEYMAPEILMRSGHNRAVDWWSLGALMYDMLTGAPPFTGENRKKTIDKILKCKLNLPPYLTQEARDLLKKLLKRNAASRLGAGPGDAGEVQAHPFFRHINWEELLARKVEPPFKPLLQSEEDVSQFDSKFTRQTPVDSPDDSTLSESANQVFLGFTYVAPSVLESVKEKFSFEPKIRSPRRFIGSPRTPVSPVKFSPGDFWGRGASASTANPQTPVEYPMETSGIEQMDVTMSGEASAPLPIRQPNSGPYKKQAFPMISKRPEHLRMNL
Chain of 5'-AMP-activated protein kinase catalytic subunit alpha-2 (Homo sapiens) (P54646 whole entry, looked up): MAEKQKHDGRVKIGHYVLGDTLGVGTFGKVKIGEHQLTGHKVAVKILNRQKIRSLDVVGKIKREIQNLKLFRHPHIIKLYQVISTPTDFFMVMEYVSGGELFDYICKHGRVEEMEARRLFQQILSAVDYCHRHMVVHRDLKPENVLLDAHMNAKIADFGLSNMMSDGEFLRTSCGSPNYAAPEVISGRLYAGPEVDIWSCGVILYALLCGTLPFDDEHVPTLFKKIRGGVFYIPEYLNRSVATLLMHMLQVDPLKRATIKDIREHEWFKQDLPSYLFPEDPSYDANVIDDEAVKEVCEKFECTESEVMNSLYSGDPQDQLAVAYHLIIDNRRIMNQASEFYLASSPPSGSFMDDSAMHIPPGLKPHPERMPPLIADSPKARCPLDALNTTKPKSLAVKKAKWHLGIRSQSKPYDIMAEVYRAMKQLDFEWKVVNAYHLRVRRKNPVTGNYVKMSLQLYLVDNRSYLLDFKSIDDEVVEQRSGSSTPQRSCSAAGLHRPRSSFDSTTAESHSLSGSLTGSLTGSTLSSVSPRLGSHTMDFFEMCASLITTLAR
Chain of RAC-alpha serine/threonine-protein kinase (Homo sapiens) (P31749 whole entry): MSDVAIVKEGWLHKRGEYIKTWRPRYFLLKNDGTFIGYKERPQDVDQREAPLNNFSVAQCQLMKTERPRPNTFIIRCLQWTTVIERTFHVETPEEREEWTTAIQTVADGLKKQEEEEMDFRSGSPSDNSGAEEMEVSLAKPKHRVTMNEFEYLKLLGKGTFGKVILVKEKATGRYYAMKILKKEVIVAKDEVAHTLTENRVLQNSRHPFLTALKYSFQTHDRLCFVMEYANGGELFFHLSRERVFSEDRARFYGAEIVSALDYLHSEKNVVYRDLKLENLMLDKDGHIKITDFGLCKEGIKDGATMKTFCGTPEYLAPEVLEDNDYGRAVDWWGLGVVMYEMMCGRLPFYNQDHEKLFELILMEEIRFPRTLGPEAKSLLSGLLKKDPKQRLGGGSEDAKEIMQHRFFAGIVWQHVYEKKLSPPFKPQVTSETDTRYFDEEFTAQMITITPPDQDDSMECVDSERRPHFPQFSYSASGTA
Chain of EKC/KEOPS complex subunit BUD32 (Saccharomyces cerevisiae S288c) (P53323 whole entry, one chain of several): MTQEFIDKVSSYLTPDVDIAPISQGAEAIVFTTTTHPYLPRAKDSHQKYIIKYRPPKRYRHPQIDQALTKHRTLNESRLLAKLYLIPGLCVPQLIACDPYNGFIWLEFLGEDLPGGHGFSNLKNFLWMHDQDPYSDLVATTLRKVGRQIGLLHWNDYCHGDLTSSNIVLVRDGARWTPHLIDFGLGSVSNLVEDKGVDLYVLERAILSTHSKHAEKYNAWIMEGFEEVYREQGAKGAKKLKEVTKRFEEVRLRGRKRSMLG
Chain of Tyrosine-protein kinase Lck (P06239 2-509 limits assumed): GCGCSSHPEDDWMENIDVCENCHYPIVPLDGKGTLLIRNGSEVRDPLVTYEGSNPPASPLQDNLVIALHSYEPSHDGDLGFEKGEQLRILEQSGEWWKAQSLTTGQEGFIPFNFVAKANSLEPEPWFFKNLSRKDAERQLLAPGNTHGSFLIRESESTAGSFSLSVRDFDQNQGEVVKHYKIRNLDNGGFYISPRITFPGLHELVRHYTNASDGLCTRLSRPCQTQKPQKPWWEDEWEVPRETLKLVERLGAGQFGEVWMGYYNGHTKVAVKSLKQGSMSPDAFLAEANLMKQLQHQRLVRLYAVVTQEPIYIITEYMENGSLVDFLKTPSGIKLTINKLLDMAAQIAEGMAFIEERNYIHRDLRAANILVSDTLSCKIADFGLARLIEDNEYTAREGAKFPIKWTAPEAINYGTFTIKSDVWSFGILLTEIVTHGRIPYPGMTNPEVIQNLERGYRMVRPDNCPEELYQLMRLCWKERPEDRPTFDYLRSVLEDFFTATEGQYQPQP
Chain of Ribosomal protein S6 kinase alpha-5 (Homo sapiens) (O75582 whole entry, looked up): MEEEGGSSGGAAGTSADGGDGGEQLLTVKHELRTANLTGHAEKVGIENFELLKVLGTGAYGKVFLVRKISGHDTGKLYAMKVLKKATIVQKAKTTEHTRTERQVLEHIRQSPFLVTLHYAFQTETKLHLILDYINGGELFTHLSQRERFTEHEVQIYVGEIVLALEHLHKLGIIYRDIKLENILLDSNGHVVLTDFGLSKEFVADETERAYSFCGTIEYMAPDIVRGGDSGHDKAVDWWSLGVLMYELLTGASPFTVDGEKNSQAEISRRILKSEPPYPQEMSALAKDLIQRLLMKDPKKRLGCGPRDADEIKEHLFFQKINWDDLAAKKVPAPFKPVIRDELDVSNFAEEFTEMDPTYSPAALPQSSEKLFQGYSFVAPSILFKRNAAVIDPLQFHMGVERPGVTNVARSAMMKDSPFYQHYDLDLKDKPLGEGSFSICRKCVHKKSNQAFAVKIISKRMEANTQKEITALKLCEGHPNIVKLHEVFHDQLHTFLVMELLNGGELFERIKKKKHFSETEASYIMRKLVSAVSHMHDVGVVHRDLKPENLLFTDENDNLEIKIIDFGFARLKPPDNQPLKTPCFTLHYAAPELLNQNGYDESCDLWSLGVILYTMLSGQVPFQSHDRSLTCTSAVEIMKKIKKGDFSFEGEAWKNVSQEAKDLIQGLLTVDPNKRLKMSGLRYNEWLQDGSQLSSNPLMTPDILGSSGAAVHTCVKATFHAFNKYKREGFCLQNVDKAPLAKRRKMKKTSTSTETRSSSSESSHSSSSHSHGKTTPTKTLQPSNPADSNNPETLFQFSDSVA
Chain of Tyrosine-protein kinase Fgr (Homo sapiens) (P09769 2-529 limits assumed): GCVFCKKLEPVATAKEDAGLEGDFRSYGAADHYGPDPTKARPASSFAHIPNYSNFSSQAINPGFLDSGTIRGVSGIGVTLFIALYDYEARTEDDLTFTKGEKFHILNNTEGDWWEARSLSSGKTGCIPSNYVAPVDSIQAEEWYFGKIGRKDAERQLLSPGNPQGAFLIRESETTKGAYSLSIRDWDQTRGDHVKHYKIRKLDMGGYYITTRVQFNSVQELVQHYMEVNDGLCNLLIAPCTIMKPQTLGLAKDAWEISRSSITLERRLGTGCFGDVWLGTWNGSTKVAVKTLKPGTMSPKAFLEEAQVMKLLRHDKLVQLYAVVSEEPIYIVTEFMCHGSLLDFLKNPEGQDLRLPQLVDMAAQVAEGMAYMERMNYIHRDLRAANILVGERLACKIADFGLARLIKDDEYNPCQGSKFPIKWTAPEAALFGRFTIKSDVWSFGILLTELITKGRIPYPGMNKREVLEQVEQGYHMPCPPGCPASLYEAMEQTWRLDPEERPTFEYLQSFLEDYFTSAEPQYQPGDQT
Chain of Glycogen synthase kinase-3 beta (P49841 whole entry, looked up): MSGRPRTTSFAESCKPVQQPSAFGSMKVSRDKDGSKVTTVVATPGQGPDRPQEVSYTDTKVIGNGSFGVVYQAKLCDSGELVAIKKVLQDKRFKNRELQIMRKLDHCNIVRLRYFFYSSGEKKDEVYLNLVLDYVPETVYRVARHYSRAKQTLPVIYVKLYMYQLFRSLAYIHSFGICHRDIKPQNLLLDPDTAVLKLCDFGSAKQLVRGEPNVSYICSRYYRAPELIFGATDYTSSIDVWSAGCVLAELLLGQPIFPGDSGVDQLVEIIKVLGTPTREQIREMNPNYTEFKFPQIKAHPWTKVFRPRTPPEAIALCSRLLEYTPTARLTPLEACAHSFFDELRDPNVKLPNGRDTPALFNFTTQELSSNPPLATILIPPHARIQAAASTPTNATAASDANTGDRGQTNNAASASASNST

Row | SMILES | Activity [1] [%] | Activity [2] [%] | Activity [3] [%] | Activity [4] [%] | Activity [5] [%] | Activity [6] [%] | Activity [7] [%] | Activity [8] [%] | Activity [9] [%] | Activity [10] [%] | Activity [11] [%] | IC50 [12] [µM] | Activity [13] [%] | Activity [14] [%] | Activity [15] [%] | Activity [16] [%] | Activity [17] [%] | Activity [18] [%] | Activity [19] [%] | Activity [20] [%] | further results
1 | O=c1cc(-c2ccc(O)cc2)oc2cc(O)cc(O)c12 [APIGENIN] | 93 | 65 | 98 | 18 | 70 | 86 | 103 | 45 | 82 | 54 | 57 | 10 | 89 | 83 | 91 | 96 | 48 | 20 | 95 | 87 | Activity [21]: 59%; Activity [22]: 88%; Activity [23]: 100%
2 | O=C(O)Cc1c2ccccc2n2c1[nH]c(=O)c1ccccc12 | 76 | 84 | 85 | 91 | 79 | 93 | 100 | 52 | 84 | 66 | 92 | 27 | 100 | 92 | 70 | 98 | 91 | 50 | 87 | 66 | Activity [21]: 97%; Activity [22]: 93%; Activity [23]: 107%
3 | Cc1cc(O)c2c(c1)C(=O)c1cc(O)cc(O)c1C2=O [EMODIN] | 81 | 84 | 111 | 75 | 104 | 90 | 90 | 79 | 82 | 68 | 89 | 38 | 100 | 88 | 82 | 89 | 99 | 29 | 96 | 94 | Activity [21]: 90%; Activity [22]: 90%; Activity [23]: 71%
